For 25 molecules, EC50 results are on record in patent US5843941A, “Ras farnesyl transferase inhibitors” (Genentech, Inc., priority 1994, dated 1998).

Where two headings read alike, the source gives them in different places. Bounds are passed on as bounds.

The target in this assay is CAAX farnesyltransferase (Rattus norvegicus, UniProt Q02293+Q04631). In words: In vitro inhibition of CAAX farnesyltransferase. Details: purified to homogeneity from rat brain homogenates; from tissue; host or cells: rat brain; alternatively recombinant enzyme from a baculovirus expression system. The conditions noted are these: Table D. The class given is biochemical. How it is done:
All compounds were tested for in vitro inhibition of CAAX protein farnesyltransferase. […] Alternatively, recombinant CAAX protein farnesyltransferase was also used in this assay. […] Seventy-two hrs after infection, the cells were harvested and disrupted and the enzyme isolated by chromatography on Q-Sepharose.
After incubation for 30 min at 37° C., the amount of [3H]famesyl group transferred to p21H-ras was measured by precipitation with SDS/trichloroacetic acid, filtration onto nitrocellulose, and scintillation counting.
Structures of the compounds tested are reproduced below. Compound numbers also refer to example numbers above.

Setting [1] is: diastereomer A, read-out: EC50 (μM) "A".
Where [2] appears, read: diastereomer B, read-out: EC50 (μM) "B".

Chain of CAAX farnesyltransferase (Q02293 whole entry, one chain of several): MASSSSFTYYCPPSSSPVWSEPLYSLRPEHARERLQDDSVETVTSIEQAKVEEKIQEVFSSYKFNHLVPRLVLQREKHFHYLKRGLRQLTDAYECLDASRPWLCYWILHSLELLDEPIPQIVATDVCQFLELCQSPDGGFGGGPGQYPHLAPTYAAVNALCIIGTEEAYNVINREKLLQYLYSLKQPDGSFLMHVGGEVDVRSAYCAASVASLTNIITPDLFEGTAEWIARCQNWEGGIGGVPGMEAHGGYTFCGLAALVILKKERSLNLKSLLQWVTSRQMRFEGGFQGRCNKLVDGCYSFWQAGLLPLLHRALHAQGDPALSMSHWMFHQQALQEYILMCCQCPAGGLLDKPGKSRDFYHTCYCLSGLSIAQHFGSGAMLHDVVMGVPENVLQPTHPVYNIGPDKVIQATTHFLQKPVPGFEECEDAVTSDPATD

Broadly, the EC50 is the concentration giving half of the maximal effect. As for `CSCC[C@@H](C(=O)O)N(C)C(=O)CN1C(=O)C(NC(=O)[C@@H](N)CS)N=C(c2ccccc2)c2ccccc21` (stereo partly shown) [compound 63], the EC50 is more than 10 µM under setting [1] and 2 µM under setting [2]. `CN(C(=O)[C@@H](N)CS)C1N=C(c2ccccc2)c2ccccc2N(CC(=O)N[C@@H](Cc2ccc(O)cc2)C(=O)O)C1=O` (stereo partly drawn) [compound 54, N-[[3-[(2-amino-3-mercapto-1-oxopropyl)methylamino]-2,3-dihydro-2-oxo-5-phenyl-1H-1,4-benzodiazepin-1-yl]acetyl]-L-tyrosine]: the concentration for a half-maximal effect (EC50) reads like this: under setting [1], 1.5 µM; under setting [2], 0.004 µM. In the case of `CN(C(=O)[C@@H](N)CS)C1N=C(c2ccccc2)c2ccccc2N(CC(=O)N[C@H](C(=O)O)C2CCCCC2)C1=O` (stereo partly drawn) [compound 58, N-[[3-[(2-amino-3-mercapto-1-oxopropyl)methylamino]-2,3-dihydro-2-oxo-5-phenyl-1H-1,4-benzodiazepin-1-yl]acetyl]-(α-cyclohexyl)-glycine], the EC50 under setting [1] is 1.1 µM and the EC50 under setting [2] was found to be 0.0006 µM. For `CC(C)[C@H](NC(=O)CN1C(=O)C(N(C)C(=O)[C@@H](N)CS)N=C(c2ccccc2)c2ccccc21)C(=O)O` (stereo partly drawn) [compound 50, N-[[3-[(2-amino-3-mercapto-1-oxopropyl)methylamino]-2,3-dihydro-2-oxo-5-phenyl-1H-1,4benzodiazepin-1-yl]acetyl]-L-valine] the same measures were more than 3 µM and 0.0008 µM. `CSCC[C@H](NC(=O)CN1C(=O)C(N(C)C(=O)[C@@H](N)CS)N=C(c2ccccc2Cl)c2cc(Cl)ccc21)C(=O)O` (stereo partly drawn) [compound 81, N-[[3-[(2-amino-3-mercapto-1-oxopropyl)methylamino]-2,3-dihydro-2-oxo-5-(2'-chlorophenyl)-7-chloro-1H-1,4-benzodiazepin-1-yl]acetyl]-L-methionine]: the EC50 was found to be 0.43 µM under setting [1] and 0.0002 µM under setting [2].

Consider `CN(CC(=O)O)C(=O)CN1C(=O)C(N(C)C(=O)[C@@H](N)CS)N=C(c2ccccc2)c2ccccc21` (stereo partly shown) [compound 65, N-[[3-[(2-amino-3-mercapto-1-oxopropyl)methylamino]-2,3-dihydro-2-oxo-5-phenyl-1H-1,4-benzodiazepin-1-yl]acetyl]-(N-methyl)-glycine], for which the EC50 under setting [1] is more than 3 µM and the EC50 under setting [2] is 0.0038 µM. Regarding `CCOC(=O)[C@H](CCSC)NC(=O)CN1C(=O)C(N(C)C(=O)[C@@H](N)CS)N=C(c2ccccc2)c2ccccc21` (stereo partly shown) [compound 39], the concentration giving a half-maximal response (EC50) under setting [1] was 8 µM and the EC50 under setting [2] worked out at 0.11 µM. The matching figures for `CN(C(=O)C(N)CS)C1N=C(c2ccccc2)c2ccccc2N(Cc2cccc(C(=O)O)c2)C1=O` (stereo not shown) [compound 95, N-[[3-[(2-amino-3-mercapto-1-oxopropyl)methylamino]-2,3-dihydro-2-oxo-5-phenyl-1H-1,4-benzodiazepin-1-yl]methyl]-3-carboxybenzene]: 0.88 µM and 0.0066 µM.

For `C[C@H](NC(=O)CN1C(=O)C(N(C)C(=O)[C@@H](N)CS)N=C(c2ccccc2)c2ccccc21)C(=O)O` (stereo partly drawn) [compound 35, N-[[3-[(2-amino-3-mercapto-1-oxopropyl)methylamino]-2,3dihydro-2-oxo-5-phenyl-1H-1,4-benzodiazepin-1-yl]acetyl]-L-alanine], the half-maximal effective concentration (EC50) was more than 10 µM under setting [1] and 0.022 µM under setting [2]. In the case of `COC(=O)c1cccc(CN2C(=O)C(N(C)C(=O)C(N)CS)N=C(c3ccccc3)c3ccccc32)c1` (stereo not shown) [compound 94, N-[[3-[(2-amino-3-mercapto-1-oxopropyl)methylamino]-2,3-dihydro-2-oxo-5-phenyl-1H-1,4-benzodiazepin-1-yl]methyl]-3-carboxymethylbenzene], the EC50 by setting is: under setting [1], 0.82 µM; under setting [2], 0.0042 µM. The matching figures for `CSCC[C@H](NC(=O)CN1C(=O)C(N(C)C(=O)[C@@H](N)CS)N=C(c2ccccc2)c2ccccc21)C(=O)OC1CCCCC1` (stereo partly shown) [compound 41]: 4.2 µM and 0.074 µM. Turning to `CCCC[C@H](NC(=O)CN1C(=O)C(N(C)C(=O)[C@@H](N)CS)N=C(c2ccccc2)c2ccccc21)C(=O)O` (stereo partly drawn) [compound 62, N-[[3-[(2-amino-3-mercapto-1-oxopropyl)methylamino]-2,3-dihydro-2-oxo-5-phenyl-1H-1,4benzodiazepin-1-yl]acetyl]-L-norleucine], the EC50 is 0.72 µM under setting [1] and 0.0005 µM under setting [2]. For the molecule `CSCC[C@H](NC(=O)CN1C(=O)C(N(C)C(=O)[C@@H](N)CSSC(C)(C)C)C=C(c2ccccc2F)c2cc(Cl)ccc21)C(=O)OC1CCCCC1` (stereo partly drawn) [compound 113, N-[[3-[(2-amino-3-tert-butylthiomercapto-1-oxopropyl)methylamino]-2,3-dihydro-2-oxo-5-(2'-fluorophenyl)-7-chloro-1H-1,4-benzazepin-1-yl]acetyl]-L-methionine cyclohexyl ester], the EC50 is more than 3 µM under setting [1] and more than 3 µM under setting [2]. For the molecule `CN(C(=O)[C@@H](N)CS)C1N=C(c2ccccc2)c2cc(Cl)ccc2N(CC(=O)N[C@@H](Cc2ccccc2)C(N)=O)C1=O` (stereo partly drawn) [compound 69, N-[[3-[(2-amino-3-mercapto-1-oxopropyl)methylamino]-2,3-dihydro-2-oxo-5phenyl-7-chloro-1H-1,4-benzodiazepin-1-yl]acetyl]-L-phenylalanine amide], the EC50 under setting [1] turned out to be 1.5 µM and the EC50 under setting [2] came to 0.0036 µM.

Regarding `C[C@@H](O)[C@H](NC(=O)CN1C(=O)C(N(C)C(=O)[C@@H](N)CS)N=C(c2ccccc2)c2ccccc21)C(=O)O` (stereo partly drawn) [compound 51, N-[[3-[(2-amino-3-mercapto-1-oxopropyl)methylamino]-2,3-dihydro-2-oxo-5-phenyl-1H-1,4-benzodiazepin-1-yl]acetyl]-L-threonine], the EC50 was more than 3 µM under setting [1] and 0.0017 µM under setting [2]. For `CN(C(=O)[C@@H](N)CS)C1N=C(c2ccccc2)c2ccccc2N(CC(=O)N[C@@H](CS)C(=O)O)C1=O` (stereo partly drawn) [compound 44, N-[[3-[(2-Amino-3-mercapto-1-oxopropyl)methylamino]-2,3-dihydro-2-oxo-5phenyl-1H-1,4-benzodiazepin-1-yl]acetyl]-L-cysteine] the same measures were 3 µM and 0.0045 µM. The matching figures for `CSCC[C@](C)(NC(=O)CN1C(=O)C(N(C)C(=O)[C@@H](N)CS)N=C(c2ccccc2)c2ccccc21)C(=O)O` (stereo partly drawn) [compound 49, N-[[3-[(2-amino-3-mercapto-1-oxopropyl)methylamino]-2,3-dihydro-2-oxo-5-phenyl-1H-1,4-benzodiazepin-1-yl]acetyl]-(α-methyl)-methionine]: 0.74 µM and 0.006 µM. As to `CSCC[C@H](NC(=O)CN1C(=O)C(N(C)C(=O)[C@@H](N)CO)N=C(c2ccccc2)c2ccccc21)C(=O)O` (stereo partly drawn) [compound 45, N-[[3-[(2-amino-3-hydroxy-1-oxopropyl)methylamino]-2,3-dihydro-2-oxo-5-phenyl-1H-1,4-benzodiazepin-1-yl]acetyl]-L-methionine], the EC50 under setting [1] was more than 10 µM and the EC50 under setting [2] was more than 10 µM.

Take `CN(C(=O)[C@@H](N)CS)C1N=C(c2ccccc2)c2ccccc2N(CC(=O)N[C@@H](CC2CCCCC2)C(=O)O)C1=O` (stereo partly drawn) [compound 57, N-[[3-[(2-amino-3-mercapto-1-oxopropyl)methylamino]-2,3-dihydro-2-oxo-5-phenyl-1H-1,4-benzodiazepin-1-yl]acetyl]-(β-cyclohexyl)-L-alanine]: the 50% effective concentration (EC50) amounted to 2 µM under setting [1] and 0.0015 µM under setting [2]. The matching figures for `CN(C(=O)[C@@H](N)CS)C1N=C(c2ccccc2)c2cc(Cl)ccc2N(Cc2ccccc2Cl)C1=O` (stereo partly shown) [compound 107, N-[[3-[(2-amino-3-mercapto-1-oxopropyl)methylamino]-2,3-dihydro-2-oxo-5-phenyl-7-chloro-1H-1,4-benzodiazepin-1-yl]methyl]-2-chlorobenzene]: 0.006 µM and 0.006 µM. As for `CN(C(=O)[C@@H](N)CS)C1N=C(c2ccccc2)c2ccccc2N(CC(=O)N[C@@H](Cc2ccc(F)cc2)C(=O)O)C1=O` (stereo partly shown) [compound 60], the EC50 under setting [1] came out at 0.94 µM and the EC50 under setting [2] stood at 0.0005 µM.

As to `CSCC[C@H](NC(=O)CN1C(=O)C(N(C)C(=O)[C@@H](N)CS)N=C(c2ccccc2)c2cc(Cl)ccc21)C(=O)O` (stereo partly drawn) [compound 67, N-[[3-[(2-amino-3-mercapto-1-oxopropyl)methylamino]-2,3-dihydro-2-oxo-5-phenyl-7-chloro-1H-1,4-benzodiazepin-1-yl]acetyl]-L-methionine], the EC50 by setting is: under setting [1], 0.31 µM; under setting [2], 0.0004 µM. For `CSCC[C@H](NC(=O)CCN1C(=O)C(N(C)C(=O)[C@@H](N)CS)N=C(c2ccccc2)c2ccccc21)C(=O)O` (stereo partly shown) [compound 48] the same measures were 2.5 µM and 0.004 µM. For `Cc1ccc(CN2C(=O)C(N(C)C(=O)[C@@H](N)CS)N=C(c3ccccc3)c3cc(Cl)ccc32)cc1` (stereo partly shown) [compound 104, N-[[3-[(2-amino-3-mercapto-1-oxopropyl)methylamino]-2,3-dihydro-2-oxo-5-phenyl-7-chloro-1H-1,4-benzodiazepin-1-yl]methyl]-4-methylbenzene] the same measures were 0.0048 µM and 0.0048 µM. Turning to `CSCC[C@H](NC(=O)CN1C(=O)C(N(C)C(=O)[C@@H](N)CSSC(C)(C)C)N=C(c2ccccc2)c2ccccc21)C(=O)OC(C)(C)C` (stereo partly drawn) [compound 118, N-[[3-[(2-amino-3-tert-butylthiomercapto-1-oxopropyl)methylamino]-2,3-dihydro-2-oxo-5-phenyl-1H-1,4-benzodiazepin-1-yl]acetyl]-L-methionine tert-butyl ester], the EC50 under setting [2] worked out at 0.9 µM.
